These results are taken from patent publication US20190224341A1, “RENAL CLEARABLE ORGANIC NANOCARRIERS” (The General Hospital Corporation, priority 2016, published 2019).

This series in a line: In vivo biodistribution and pharmacokinetics in CD-1 mice. Particulars: i.v. 10 nmol.

Description: Six weeks old CD-1 mice (male; 25-30 g) were purchased from Charles River Laboratories (Wilmington, Mass.). Mice were maintained under anesthesia by intraperitoneal injection with 100 mg/kg ketamine and 10 mg/kg xylazine (Webster Veterinary, Fort Devens, MA) for the entire duration of the experiment. The end of the tail was cut to enable blood extraction. Before injection, blood was then sampled in heparinized capillary tubes (Fisher Scientific, Pittsburgh, Pa.) as a reference and collected blood was stored in an ice box to prevent clotting. […] Mice were imaged using the in-house built real-time intraoperative MR imaging system. A 760 nm excitation laser source (4 mW/cm) was used with white light (400-650 nm; 40,000 lux). Color and MR fluorescence images were acquired simultaneously with customized software at rates of up to 15 Hz over a field of view with 15 cm in diameter. After 4 h post-injection, mice were sacrificed to image organs and collected urine from the bladder. At least 3 mice were analyzed for each sample.
The collected blood samples were centrifuged for 20 min at 3000 rpm in order to separate serum and blood plasma, and supernatants were then filled into capillary microtubes. Fluorescence intensities of the microtubes were measured using the in-house built MR imaging system. […]

For `CC1(C)C(/C=C/C2=C(c3ccc(CCC(=O)O)cc3)C(=C/C=C3/N(CCC[N+](C)(C)C)c4ccc(S(=O)(=O)O)cc4C3(C)C)/CCC2)=[N+](CCC[N+](C)(C)C)c2ccc(S(=O)(=O)O)cc21` [ZW800-1C], the “Signal-to-background ratio (SBR) of each organ against muscle” value (4 h, resected organs) was “highest SBR in the kidneys”. In addition, the “Biodistribution by NIR fluorescence imaging” value (4 h post-injection) was “excretes to the bladder 4 h after injection”.
